The results in this text go back to patent publication US10494332B2, “Protein tyrosine phosphatases or SHP2 inhibitors and uses thereof” (Indiana University Research and Technology Corporation, priority 2015, dated 2019).

The target of one test is VHR (Homo sapiens, UniProt P51452). The test is described as follows: PTP inhibition assay (pNPP). The note with it: pNPP at Km, pH 7.0, 25° C. The test is classed as biochemical.
The target of another test is LAR (Homo sapiens, UniProt P10586). The test is described as follows: PTP inhibition assay (pNPP). The test is classed as biochemical.
Sequence of LAR (P10586 30-1907): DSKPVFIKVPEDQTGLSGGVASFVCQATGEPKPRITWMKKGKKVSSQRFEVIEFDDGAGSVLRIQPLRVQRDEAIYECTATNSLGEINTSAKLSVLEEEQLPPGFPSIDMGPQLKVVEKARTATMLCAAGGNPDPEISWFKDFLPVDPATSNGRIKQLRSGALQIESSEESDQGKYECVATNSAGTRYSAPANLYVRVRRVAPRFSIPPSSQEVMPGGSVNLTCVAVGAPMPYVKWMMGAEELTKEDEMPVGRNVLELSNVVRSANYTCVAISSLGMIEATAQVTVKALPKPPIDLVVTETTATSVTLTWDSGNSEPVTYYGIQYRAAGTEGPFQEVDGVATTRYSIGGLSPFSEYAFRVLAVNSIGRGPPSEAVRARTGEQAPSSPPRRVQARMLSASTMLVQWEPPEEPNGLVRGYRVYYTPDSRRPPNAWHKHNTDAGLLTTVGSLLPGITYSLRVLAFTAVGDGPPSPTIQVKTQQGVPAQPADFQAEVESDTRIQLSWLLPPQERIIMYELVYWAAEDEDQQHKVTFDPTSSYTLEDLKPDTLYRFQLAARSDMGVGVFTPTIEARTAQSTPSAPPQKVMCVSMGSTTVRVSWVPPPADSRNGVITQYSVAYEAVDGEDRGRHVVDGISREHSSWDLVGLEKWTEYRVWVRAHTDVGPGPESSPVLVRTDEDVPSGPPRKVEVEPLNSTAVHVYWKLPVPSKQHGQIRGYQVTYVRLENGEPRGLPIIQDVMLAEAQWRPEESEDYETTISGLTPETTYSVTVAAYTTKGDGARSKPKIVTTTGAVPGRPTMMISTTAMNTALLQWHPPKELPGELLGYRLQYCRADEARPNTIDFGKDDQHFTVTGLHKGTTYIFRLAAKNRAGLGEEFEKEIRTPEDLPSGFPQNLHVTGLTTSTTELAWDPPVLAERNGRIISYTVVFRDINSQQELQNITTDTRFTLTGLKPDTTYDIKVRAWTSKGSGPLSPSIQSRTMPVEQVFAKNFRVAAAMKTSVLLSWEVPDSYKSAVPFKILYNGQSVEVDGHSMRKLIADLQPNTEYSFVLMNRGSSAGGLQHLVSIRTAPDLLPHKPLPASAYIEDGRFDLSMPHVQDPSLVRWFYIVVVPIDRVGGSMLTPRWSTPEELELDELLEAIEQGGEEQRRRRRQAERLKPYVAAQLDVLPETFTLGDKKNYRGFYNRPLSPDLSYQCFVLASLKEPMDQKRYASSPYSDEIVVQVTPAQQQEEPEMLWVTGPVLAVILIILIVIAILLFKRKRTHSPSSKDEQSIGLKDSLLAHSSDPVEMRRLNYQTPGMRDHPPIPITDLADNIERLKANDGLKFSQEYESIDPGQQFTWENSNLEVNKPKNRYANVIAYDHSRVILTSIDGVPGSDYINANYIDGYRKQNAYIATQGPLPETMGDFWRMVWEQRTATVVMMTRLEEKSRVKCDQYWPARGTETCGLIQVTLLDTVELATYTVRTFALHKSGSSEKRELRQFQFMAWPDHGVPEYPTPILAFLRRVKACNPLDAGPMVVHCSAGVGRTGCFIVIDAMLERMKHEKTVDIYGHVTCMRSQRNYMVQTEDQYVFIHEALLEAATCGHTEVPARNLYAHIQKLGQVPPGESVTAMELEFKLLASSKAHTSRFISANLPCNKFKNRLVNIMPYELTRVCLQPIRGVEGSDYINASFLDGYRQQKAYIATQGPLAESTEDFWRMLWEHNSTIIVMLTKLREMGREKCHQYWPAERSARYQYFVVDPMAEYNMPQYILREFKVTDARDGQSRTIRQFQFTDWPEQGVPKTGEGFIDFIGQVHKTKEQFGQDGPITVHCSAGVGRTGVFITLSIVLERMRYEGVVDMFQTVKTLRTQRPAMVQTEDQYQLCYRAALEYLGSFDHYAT
A further test addresses TbPTP1 (Trypanosoma brucei brucei, UniProt Q38AT7). The test is described as follows: PTP inhibition assay (pNPP). Conditions: pH 7.0, 25° C. The test is classed as biochemical.
The target of another test is T1, CD45 (Homo sapiens, UniProt P08575).
T1 sequence (P08575 26-1306): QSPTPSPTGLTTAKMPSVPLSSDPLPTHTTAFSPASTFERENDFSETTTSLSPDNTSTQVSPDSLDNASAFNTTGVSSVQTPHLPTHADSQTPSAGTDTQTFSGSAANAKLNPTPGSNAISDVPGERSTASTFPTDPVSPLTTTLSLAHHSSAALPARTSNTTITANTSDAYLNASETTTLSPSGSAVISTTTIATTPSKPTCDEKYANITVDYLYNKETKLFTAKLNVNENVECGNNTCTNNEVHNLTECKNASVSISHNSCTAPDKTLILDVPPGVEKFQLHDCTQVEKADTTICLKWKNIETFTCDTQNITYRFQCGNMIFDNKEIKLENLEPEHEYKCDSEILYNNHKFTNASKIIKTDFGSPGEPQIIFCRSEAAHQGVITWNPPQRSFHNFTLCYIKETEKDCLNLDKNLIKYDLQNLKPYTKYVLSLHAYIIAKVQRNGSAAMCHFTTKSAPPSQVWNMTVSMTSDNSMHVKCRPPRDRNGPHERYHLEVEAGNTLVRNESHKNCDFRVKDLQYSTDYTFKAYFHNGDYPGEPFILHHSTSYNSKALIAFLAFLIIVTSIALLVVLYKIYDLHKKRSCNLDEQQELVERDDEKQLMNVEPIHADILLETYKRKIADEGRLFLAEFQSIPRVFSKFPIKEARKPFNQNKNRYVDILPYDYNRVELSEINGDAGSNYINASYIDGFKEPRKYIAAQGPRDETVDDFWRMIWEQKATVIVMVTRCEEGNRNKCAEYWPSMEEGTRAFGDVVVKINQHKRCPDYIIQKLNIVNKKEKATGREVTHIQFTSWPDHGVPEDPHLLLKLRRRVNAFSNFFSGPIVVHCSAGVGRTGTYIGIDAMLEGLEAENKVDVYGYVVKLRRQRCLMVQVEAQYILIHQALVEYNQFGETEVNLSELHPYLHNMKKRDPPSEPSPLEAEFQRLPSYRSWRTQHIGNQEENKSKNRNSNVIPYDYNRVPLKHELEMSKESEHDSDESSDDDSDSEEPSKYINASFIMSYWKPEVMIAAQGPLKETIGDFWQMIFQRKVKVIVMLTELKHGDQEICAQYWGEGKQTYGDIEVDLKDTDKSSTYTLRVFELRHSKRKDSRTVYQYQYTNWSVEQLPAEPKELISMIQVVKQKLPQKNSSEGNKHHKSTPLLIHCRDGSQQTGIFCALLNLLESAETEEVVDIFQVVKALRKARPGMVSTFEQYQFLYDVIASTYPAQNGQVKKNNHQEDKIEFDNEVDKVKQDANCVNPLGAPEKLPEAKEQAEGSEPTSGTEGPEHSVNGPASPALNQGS
The test is described as follows: PTP inhibition assay (pNPP). It is filed as biochemical. Conditions: pNPP at Km, pH 7.0, 25° C.

A further test concerns the target T2, LYP (Homo sapiens, UniProt Q9Y2R2).
T2 sequence (Q9Y2R2 1-807): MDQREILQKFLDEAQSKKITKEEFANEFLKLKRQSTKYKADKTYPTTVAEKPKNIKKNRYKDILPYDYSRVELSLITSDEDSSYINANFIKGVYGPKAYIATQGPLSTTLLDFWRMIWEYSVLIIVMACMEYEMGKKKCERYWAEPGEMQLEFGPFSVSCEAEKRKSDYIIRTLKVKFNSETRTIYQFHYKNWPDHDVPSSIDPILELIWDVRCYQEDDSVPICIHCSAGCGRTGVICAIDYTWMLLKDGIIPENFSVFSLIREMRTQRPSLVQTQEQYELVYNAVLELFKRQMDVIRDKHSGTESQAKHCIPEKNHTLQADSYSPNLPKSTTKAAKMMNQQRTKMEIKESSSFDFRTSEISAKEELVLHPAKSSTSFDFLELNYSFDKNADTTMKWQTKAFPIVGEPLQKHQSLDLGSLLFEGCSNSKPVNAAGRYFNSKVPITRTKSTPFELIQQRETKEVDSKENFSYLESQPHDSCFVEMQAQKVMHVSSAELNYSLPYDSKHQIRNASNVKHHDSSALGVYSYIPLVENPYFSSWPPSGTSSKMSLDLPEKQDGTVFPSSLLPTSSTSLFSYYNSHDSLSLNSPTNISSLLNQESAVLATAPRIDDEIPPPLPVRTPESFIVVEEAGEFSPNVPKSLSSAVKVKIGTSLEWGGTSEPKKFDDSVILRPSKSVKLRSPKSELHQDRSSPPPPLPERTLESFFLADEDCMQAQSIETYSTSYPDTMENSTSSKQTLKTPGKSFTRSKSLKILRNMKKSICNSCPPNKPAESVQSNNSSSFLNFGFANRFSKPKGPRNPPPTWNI
The test is described as follows: PTP inhibition assay (pNPP). The test is classed as biochemical. The note with it: pNPP at Km, pH 7.0, 25° C.

For the next test, the target named is mPTPA (Mycobacterium tuberculosis, UniProt P9WIA1). The test is described as follows: biochemical.
Sequence of mPTPA (P9WIA1 whole entry): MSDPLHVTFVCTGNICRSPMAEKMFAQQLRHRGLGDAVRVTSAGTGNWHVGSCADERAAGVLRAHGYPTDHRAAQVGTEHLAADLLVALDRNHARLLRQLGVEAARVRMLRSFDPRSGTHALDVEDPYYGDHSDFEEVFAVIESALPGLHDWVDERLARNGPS
For a further test, the target named is T3, TcPTP (Homo sapiens, UniProt P17706).
T3 sequence (P17706 1-415): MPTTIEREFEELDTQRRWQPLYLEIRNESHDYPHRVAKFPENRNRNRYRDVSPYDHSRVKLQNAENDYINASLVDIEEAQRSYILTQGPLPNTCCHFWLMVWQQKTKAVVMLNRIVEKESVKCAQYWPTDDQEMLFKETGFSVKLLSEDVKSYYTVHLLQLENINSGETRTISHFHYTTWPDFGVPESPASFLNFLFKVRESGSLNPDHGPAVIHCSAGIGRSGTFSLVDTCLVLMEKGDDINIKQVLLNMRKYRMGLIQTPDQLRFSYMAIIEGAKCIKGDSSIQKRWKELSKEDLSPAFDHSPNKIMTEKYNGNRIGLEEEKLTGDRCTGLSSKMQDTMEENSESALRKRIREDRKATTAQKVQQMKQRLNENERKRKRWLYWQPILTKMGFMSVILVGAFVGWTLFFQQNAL
The test is described as follows: PTP inhibition assay (pNPP). The test is classed as biochemical.

The target of a further test is FAP1 (Homo sapiens, UniProt Q12923). The test is described as follows: PTP inhibition assay (pNPP). It is filed as biochemical.
Sequence of FAP1 (Q12923 whole entry): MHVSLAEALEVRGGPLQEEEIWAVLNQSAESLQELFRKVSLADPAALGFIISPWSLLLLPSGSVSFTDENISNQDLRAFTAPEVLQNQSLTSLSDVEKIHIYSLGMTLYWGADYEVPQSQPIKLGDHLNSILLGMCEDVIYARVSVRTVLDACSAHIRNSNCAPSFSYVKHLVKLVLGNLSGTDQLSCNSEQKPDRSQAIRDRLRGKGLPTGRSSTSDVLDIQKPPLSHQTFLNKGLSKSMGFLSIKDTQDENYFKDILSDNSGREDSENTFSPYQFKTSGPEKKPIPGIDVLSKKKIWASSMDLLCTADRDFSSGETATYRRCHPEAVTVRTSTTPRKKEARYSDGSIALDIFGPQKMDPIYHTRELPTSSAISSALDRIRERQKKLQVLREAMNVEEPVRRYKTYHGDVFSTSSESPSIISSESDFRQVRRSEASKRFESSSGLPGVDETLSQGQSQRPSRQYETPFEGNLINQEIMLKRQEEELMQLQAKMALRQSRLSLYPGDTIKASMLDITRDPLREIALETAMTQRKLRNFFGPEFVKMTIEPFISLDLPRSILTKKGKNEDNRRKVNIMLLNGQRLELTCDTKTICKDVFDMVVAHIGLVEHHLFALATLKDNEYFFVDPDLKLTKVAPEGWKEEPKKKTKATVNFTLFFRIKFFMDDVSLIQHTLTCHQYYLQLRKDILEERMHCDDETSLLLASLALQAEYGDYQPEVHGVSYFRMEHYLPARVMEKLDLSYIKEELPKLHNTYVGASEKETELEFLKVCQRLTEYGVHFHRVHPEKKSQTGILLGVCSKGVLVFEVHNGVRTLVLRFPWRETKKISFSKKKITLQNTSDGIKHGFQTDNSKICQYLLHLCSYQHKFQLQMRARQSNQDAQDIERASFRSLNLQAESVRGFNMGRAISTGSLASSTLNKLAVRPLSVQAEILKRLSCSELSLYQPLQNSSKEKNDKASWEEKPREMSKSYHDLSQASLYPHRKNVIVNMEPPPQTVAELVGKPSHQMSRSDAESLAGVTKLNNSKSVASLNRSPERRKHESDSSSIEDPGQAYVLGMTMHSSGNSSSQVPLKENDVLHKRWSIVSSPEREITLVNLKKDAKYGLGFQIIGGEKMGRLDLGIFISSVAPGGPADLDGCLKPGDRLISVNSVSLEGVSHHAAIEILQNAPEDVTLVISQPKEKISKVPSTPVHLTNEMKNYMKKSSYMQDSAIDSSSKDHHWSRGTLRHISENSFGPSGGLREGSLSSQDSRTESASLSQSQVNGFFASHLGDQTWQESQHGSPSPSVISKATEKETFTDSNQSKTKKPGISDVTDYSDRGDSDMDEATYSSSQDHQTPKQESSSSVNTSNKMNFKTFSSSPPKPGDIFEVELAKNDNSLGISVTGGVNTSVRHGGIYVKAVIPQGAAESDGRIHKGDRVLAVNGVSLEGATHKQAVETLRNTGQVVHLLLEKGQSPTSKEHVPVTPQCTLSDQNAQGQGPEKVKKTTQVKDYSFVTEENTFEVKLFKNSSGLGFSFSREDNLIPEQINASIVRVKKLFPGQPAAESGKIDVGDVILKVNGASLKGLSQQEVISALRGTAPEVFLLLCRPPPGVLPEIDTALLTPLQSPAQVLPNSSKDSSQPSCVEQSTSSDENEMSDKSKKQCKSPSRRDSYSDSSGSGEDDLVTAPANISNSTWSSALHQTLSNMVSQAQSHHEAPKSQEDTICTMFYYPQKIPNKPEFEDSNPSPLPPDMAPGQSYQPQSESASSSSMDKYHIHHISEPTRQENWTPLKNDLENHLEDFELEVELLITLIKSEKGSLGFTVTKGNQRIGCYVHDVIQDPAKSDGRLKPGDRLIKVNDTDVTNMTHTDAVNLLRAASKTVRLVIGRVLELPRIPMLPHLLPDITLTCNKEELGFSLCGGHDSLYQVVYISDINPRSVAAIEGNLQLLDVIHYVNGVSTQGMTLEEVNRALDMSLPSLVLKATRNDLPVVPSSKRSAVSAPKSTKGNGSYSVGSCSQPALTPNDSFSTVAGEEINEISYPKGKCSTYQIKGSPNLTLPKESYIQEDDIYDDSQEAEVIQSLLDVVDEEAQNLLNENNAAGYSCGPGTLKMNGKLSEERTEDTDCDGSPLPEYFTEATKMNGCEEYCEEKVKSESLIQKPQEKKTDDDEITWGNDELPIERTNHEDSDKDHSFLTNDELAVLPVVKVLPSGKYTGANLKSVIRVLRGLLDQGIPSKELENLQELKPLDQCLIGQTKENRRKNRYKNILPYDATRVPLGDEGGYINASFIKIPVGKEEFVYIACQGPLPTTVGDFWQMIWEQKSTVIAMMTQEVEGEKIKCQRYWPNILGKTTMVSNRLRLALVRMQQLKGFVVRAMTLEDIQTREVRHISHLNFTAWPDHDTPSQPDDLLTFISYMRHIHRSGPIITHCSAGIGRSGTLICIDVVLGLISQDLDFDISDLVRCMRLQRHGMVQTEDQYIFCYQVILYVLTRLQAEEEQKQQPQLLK
The next test addresses PTPσ (Homo sapiens, UniProt Q13332). The test is described as follows: PTP inhibition assay (pNPP). It is filed as biochemical.
[1] abbreviates: pNPP at Km, read-out: IC50 TbPTP1.
The mark [2] stands for this setting: pNPP at Km, pH 7.0, 25° C., read-out: IC50 TcPTP.
Setting [3] is: pNPP at Km, pH 7.0, 25° C., read-out: IC50 FAP1.

Each structure is given as a SMILES string. Values joined by “and” are separate entries in the source; they are usually repeats but may differ in a detail not shown here. Equal values may be shown once. Read-outs that look alike come from different tables or passages of the source. Bounds are passed on as bounds.

Sequence of TbPTP1 (Q38AT7 entry or part of it): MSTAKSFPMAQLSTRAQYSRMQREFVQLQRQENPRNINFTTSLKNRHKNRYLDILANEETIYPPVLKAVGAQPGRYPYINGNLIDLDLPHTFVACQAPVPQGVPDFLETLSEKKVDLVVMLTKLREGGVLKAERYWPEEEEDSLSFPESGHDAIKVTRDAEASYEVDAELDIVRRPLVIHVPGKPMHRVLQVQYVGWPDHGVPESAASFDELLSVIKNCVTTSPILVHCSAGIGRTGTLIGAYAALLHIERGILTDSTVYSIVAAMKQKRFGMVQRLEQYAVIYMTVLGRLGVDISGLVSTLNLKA
Sequence of VHR (P51452 whole entry): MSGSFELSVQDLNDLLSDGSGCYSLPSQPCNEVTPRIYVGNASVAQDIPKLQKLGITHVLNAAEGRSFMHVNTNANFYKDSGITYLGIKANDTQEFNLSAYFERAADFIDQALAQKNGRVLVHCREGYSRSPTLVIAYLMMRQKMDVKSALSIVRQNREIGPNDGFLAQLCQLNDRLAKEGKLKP

Take `Cc1c(Br)cc(NC(=O)CS(=O)(=O)O)cc1Br`: the half-maximal inhibitory concentration (IC50) (usually the concentration needed to halve the response being measured) at VHR was > 100 µM; at LAR, > 100 µM; at TbPTP1 (setting [1]) it was > 100 µM; at CD45 it was > 100 µM; at LYP, > 100 µM; on mPTPA (Biochemical potency against target (Ic50, nM) mPTPA) it was 160 nM. Also, the half-maximal inhibitory concentration (IC50) against mPTPA (IC50 mPTPA) stood at 160 nM. Moreover, the inhibition constant (Ki) – broadly, the equilibrium dissociation constant of an inhibitor or competing ligand from its target – at mPTPA came out at 0.056 ± 0.002 µM. The “Mode of mPTPA inhibition” value at mPTPA was “reversible and competitive inhibitor”.
In the case of `O=C(CS(=O)(=O)O)Nc1ccc2nc(C(F)(F)F)[nH]c2c1`, the half-maximal inhibitory concentration (IC50) against VHR, on LAR, on TcPTP (setting [2]), on FAP1 (setting [3]), on PTPσ (read-out: IC50 PTPσ) and on TbPTP1 (setting [1]) was > 100 µM throughout. Also, the IC50 on CD45 is > 100 µM; against LYP it was > 100 µM; against mPTPA (IC50 mPTPA) it was 650 nM.
`O=C(CS(=O)(=O)O)Nc1cnc2ccccc2c1`: the half-inhibitory concentration (IC50) against VHR, at LAR, at TcPTP (setting [2]), on FAP1 (setting [3]), at PTPσ (read-out: IC50 PTPσ) and on TbPTP1 (setting [1]) was > 100 µM each time. Also, the half-maximal inhibitory concentration (IC50) on CD45 is > 100 µM; against LYP, > 100 µM; against mPTPA (IC50 mPTPA), 3000 nM.
With `O=C(NCCNC(=O)C(c1ccccc1)S(=O)(=O)O)c1cccc(C(=O)c2ccccc2)c1` (stereo not drawn) [Compound L319-02-A60], the IC50 against VHR, on TcPTP (setting [2]), at FAP1 (setting [3]), at TbPTP1 (setting [1]) and against LYP was > 200 µM in each case.
For the molecule `O=C(NCc1ccc(NC(=O)C(c2ccccc2)S(=O)(=O)O)cc1)c1ccccc1-c1ccc(C(F)(F)F)cc1` (stereo not drawn) [Compound L319-05-A64], the half-inhibitory concentration (IC50) on TcPTP (setting [2]) worked out at 96 µM; at FAP1 (setting [3]) it was 70 µM; at TbPTP1 (setting [1]), 93 µM; against LYP it was 62 µM.
Regarding `CCCCc1ccc(NC(=O)C(=O)Nc2ccccc2NC(=O)C(c2ccccc2)S(=O)(=O)O)cc1` (stereo not drawn) [Compound L319-21-M06], the IC50 against VHR, at TcPTP (setting [2]), on FAP1 (setting [3]), at TbPTP1 (setting [1]) and on LYP was > 50 µM in each case.
Turning to `O=C(Nc1cccc(OCc2ccccc2)c1)C(=O)Nc1ccccc1NC(=O)C(c1ccccc1)S(=O)(=O)O` (stereo not drawn) [Compound L319-21-M52], the IC50 at VHR, at TcPTP (setting [2]), on FAP1 (setting [3]), at TbPTP1 (setting [1]) and at LYP was > 50 µM each time.
As for `Cc1c(Br)cc(NC(=O)C(c2ccccc2)S(=O)(=O)O)cc1Br` (stereo not drawn) [Compound L319M34], the IC50 is > 100 µM at TcPTP (IC50 TcPTP); > 100 µM against FAP1 (IC50 FAP1); > 200 µM against TbPTP1 (IC50 TbPTP1, pNPP at Km); 196 nM on mPTPA (IC50 mPTPA).
Take `O=C(Nc1ccc(OCc2ccccc2)c(Cl)c1)C(c1ccccc1)S(=O)(=O)O` (stereo not drawn) [Compound L319M50]: the 50% inhibitory concentration (IC50) against VHR is > 200 µM; at TcPTP (setting [2]), > 100 µM; on FAP1 (setting [3]), 73 µM; at TbPTP1 (setting [1]), > 100 µM; against LYP, > 200 µM.
On to `O=C(Nc1cccc(OCc2ccccc2)c1)C(c1ccccc1)S(=O)(=O)O` (stereo not drawn) [Compound L319M52], for which the half-inhibitory concentration (IC50) at VHR was > 200 µM; against LAR it was > 200 µM; at TcPTP (setting [2]) it was 170 µM and > 100 µM; on FAP1 (setting [3]) it was 88 µM; at PTPσ (read-out: IC50 PTPσ) it was > 200 µM; on TbPTP1 (setting [1]), 118 µM and > 100 µM. Moreover, the IC50 is > 200 µM at CD45, > 200 µM on LYP and 560 nM on mPTPA (IC50 mPTPA).
As for `O=C(Nc1ccc2nc(C(F)(F)F)[nH]c2c1)C(c1ccccc1)S(=O)(=O)O` (stereo not drawn) [Compound L319M54], the IC50 against VHR is > 200 µM; at LAR, > 200 µM; at TcPTP (setting [2]), > 200 µM; at FAP1 (setting [3]) it was 180 µM and > 100 µM; on PTPσ, > 200 µM; on TbPTP1 (setting [1]), > 200 µM. The IC50 on CD45 is > 200 µM; at LYP, > 200 µM; against mPTPA (IC50 mPTPA) it was 265 nM and 270 nM.
Take `O=C(Nc1ccc(N2CCOCC2)cc1)C(c1ccccc1)S(=O)(=O)O` (stereo not drawn) [Compound L319M68]: the IC50 on VHR, on LAR, at TcPTP (setting [2]), at FAP1 (setting [3]), at PTPσ and at TbPTP1 (setting [1]) was > 200 µM throughout. The IC50 on CD45 is > 200 µM; against LYP, > 200 µM; on mPTPA (IC50 mPTPA), 250 nM. Affinity on mPTPA was put at a Ki of 0.13 µM.
Consider `O=C(Nc1ccc(-c2ccccc2)cc1)C(c1ccccc1)S(=O)(=O)O` (stereo not drawn) [Compound L319N08], for which the IC50 against VHR was > 200 µM; at TcPTP (IC50 TcPTP), > 200 µM; against FAP1 (IC50 FAP1), 71 µM; at TbPTP1 (setting [1]), > 100 µM; against LYP, > 200 µM.
Regarding `O=C(CS(=O)(=O)O)Nc1nc2ccc([N+](=O)[O-])cc2s1` [Compound L335N15-07], the IC50 against VHR, at LAR, on TcPTP (setting [2]), on FAP1 (setting [3]), on PTPσ (read-out: IC50 PTPσ) and at TbPTP1 (setting [1]) was > 100 µM in each case. The IC50 at CD45 and against LYP was > 100 µM each time.
